Results reported in patent EP2931723B1, “NEW BICYCLIC COMPOUNDS AND THEIR USE AS ANTIBACTERIAL AGENTS AND -LACTAMASE INHIBITORS” (Fedora Pharmaceuticals Inc., priority 2012, dated 2014).

Key:
Test in all cases: MIC, antibacterial and synergistic activity
Format in all cases: cell-based
E. coli ATCC 25922 = E. coli ATCC 25922 (Wt)
A. baumanii JMI 2659 = A. baumanii JMI 2659 (Ges-14 (Cpase))
E.coli JMI 4103 = E.coli JMI 4103 (KPC-2, Tem-1, CMY-Type)
E. coli JMI 4080 = tested on: E. coli JMI 4080
E. coli JMI 10767 [1] = details: E. coli JMI 10767 (Wt)
Method: (§1) In the Tables 10 - 12, compounds herein disclosed were tested in combination with various antibiotics against metallo β-lactamase producing bacteria. Table 3: Synergy of the inhibitor Ex. 1 (4 µg/mL) in combination with antibiotics

E. coli JMI 10768 [2] = details: E. coli JMI 10768 (CTX-M15 (Weak ESBL))
Method: as §1

E. coli JMI 10770 = E. coli JMI 10770 (CTX-M15 (Hyper ESBL))
Method: as §1

E. coli JMI 2665 = tested on: E. coli JMI 2665
Method: as §1

E. coli JMI 2671 = tested on: E. coli JMI 2671
Outline: (§2)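 Metallo β-lactamase-producing isolates were exposed to antibiotics plus a constant inhibitor level (4 µg/mL), and growth inhibition gave the MIC.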

K. pneumo JMI 2673 [3] = details: K. pneumo JMI 2673 (CTX-M14 (ESBL))
Outline: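 Compounds were evaluated together with various antibiotics to measure synergistic antibacterial activity. For each combination, the minimum inhibitory concentration of the antibiotic was recorded while the inhibitor was present at a constant 4 µg/mL.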

K. pneumo JMI 2674 [4] = details: K. pneumo JMI 2674 (CTX-M15 (ESBL))
Outline: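 Antibacterial activity was assessed as minimum inhibitory concentrations against a β-lactamase-producing bacterial strain. Each test inhibitor was combined with an antibiotic, with the inhibitor held at a fixed 4 µg/mL, to determine whether it acted synergistically and restored the antibiotic's effect against the resistant organism.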

K. pneumo JMI 2699 = K. pneumo JMI 2699 (VIM-1, CTX-M3)
Outline: as §2

K. pneumo JMI 4088 [5] = details: K. pneumo JMI 4088 (KPC-3 (Cpase))
Outline: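 Minimum inhibitory concentrations were measured for antibiotics given together with the test inhibitor, held at 4 µg/mL, against bacteria that produce β-lactamase. The purpose was to see whether the inhibitor restores or boosts antibacterial activity, that is, synergy with the antibiotic.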

K.pneumo JMI 4109 = K.pneumo JMI 4109 (SHV-1, SHV-12)
Outline: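 Antibacterial synergy was assessed by pairing each inhibitor compound, at a constant concentration of 4 µg/mL, with β-lactam antibiotics. The combinations were run against bacterial strains that produce β-lactamases, and the readout was the minimum inhibitory concentration of the antibiotic in the presence of the inhibitor.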

P. aerug JMI 2686 = P. aerug JMI 2686 (KPC-2 (Cpase))
Outline: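 This antibacterial synergy assay measured the minimum inhibitory concentration of antibiotics combined with the disclosed inhibitor compounds. The inhibitor was held at 4 µg/mL throughout. The aim was to see whether the added compound strengthened the antibiotic's action against the tested bacteria.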

K. pneumo JMI 2681 = K. pneumo JMI 2681 (Oxa-48 (Cpase))
P. aerug JMI 149 = P. aerug JMI 149 (Bla+++D+)
E. cloacae JMI 36 = E. cloacae JMI 36 (P99)
K. pneumo JMI 2673 [6] = details: K. pneumo JMI 2673 (CTX-M14 (ESBL)); substance alone
K. pneumo JMI 2674 [7] = details: K. pneumo JMI 2674 (CTX-M15 (ESBL)); substance alone
K. pneumo JMI 4088 [8] = details: K. pneumo JMI 4088 (KPC-3 (Cpase)); substance alone
E. coli JMI 10767 [9] = details: E. coli JMI 10767 (Wt); remark: listed apart in the source
E. coli JMI 10768 [10] = details: E. coli JMI 10768 (CTX-M15 (Weak ESBL)); Meropenem + inhibitor at 4 µg/mL
[11] = Aztreonam + inhibitor at 4 µg/mL
[12] = Ceftazidime + inhibitor at 4 µg/mL
[13] = Meropenem + inhibitor at 4 µg/mL

O=C(NNC(=O)[C@H]1CC[C@H]2CN1C(=O)N2OS(=O)(=O)O)C1CNC1 (stereo in doubt) [Ex. 9, (2R,5S)-N'-(azetidin-3-ylcarbonyl)-7-oxo-6-(sulfooxy)-1,6-diazabicyclo[3.2.1]octane-2-carbohydrazide]
16 µg/mL: MIC Ceftazidime + inhibitor (A. baumanii JMI 2659; [12]) | MIC (E.coli JMI 4103; Escherichia coli, JMI4103, substance alone) | MIC (E. coli JMI 4080; Escherichia coli, JMI4080, E. coli JMI 4080 (Tem-10), substance alone) | MIC Ceftazidime + inhibitor (P. aerug JMI 149; [12]) | MIC (P. aerug JMI 149; substance alone, read-out: MIC) | MIC (K. pneumo JMI 4088 [8])
0.5 µg/mL: MIC Ceftazidime + inhibitor (E.coli JMI 4103; [12]) | MIC Meropenem + inhibitor (K. pneumo JMI 2699; [13]) | MIC Aztreonam + inhibitor (K. pneumo JMI 4088 [5]; [11]) | MIC Meropenem + inhibitor (P. aerug JMI 149; [13])
> 16 µg/mL: MIC (E. coli ATCC 25922; Escherichia coli, ATCC25922, substance alone) | MIC (A. baumanii JMI 2659; Acinetobacter baumannii, JMI2659, substance alone, read-out: MIC) | MIC (E. coli JMI 10768 [2]; Escherichia coli, JMI10768, substance alone) | MIC (E. coli JMI 2671; Escherichia coli, JMI2671, E. coli JMI 2671 (VIM-19 (Cpase)), substance alone) | MIC (K. pneumo JMI 2699; substance alone, read-out: MIC) | MIC (K. pneumo JMI 2681; substance alone, read-out: MIC) | MIC (E. cloacae JMI 36; Enterobacter cloacae, JMI36, substance alone, read-out: MIC) | MIC (K. pneumo JMI 2673 [6]) | MIC (K. pneumo JMI 2674 [7]) | MIC (E. coli JMI 10767 [9]; Escherichia coli, JMI10767, substance alone)
0.06 µg/mL: MIC Meropenem + inhibitor (E.coli JMI 4103; [13]) | MIC Meropenem + inhibitor (K. pneumo JMI 2674 [4]; [13]) | MIC Aztreonam + inhibitor (K. pneumo JMI 2699; [11]) | MIC Meropenem + inhibitor (K. pneumo JMI 4088 [5]; [13]) | MIC Meropenem + inhibitor (E. cloacae JMI 36; [13])
0.25 µg/mL: MIC Ceftazidime + inhibitor (E. coli JMI 4080; E. coli JMI 4080 (Tem-10), Ceftazidime + inhibitor at 4 µg/mL) | MIC Aztreonam + inhibitor (K. pneumo JMI 2681; [11]) | MIC Aztreonam + inhibitor (E. cloacae JMI 36; [11])
≤0.06 µg/mL: MIC Aztreonam + inhibitor (E. coli ATCC 25922; [11]) | MIC Aztreonam + inhibitor (E.coli JMI 4103; [11]) | MIC Aztreonam + inhibitor (E. coli JMI 4080; E. coli JMI 4080 (Tem-10), Aztreonam + inhibitor at 4 µg/mL) | MIC Aztreonam + inhibitor (E. coli JMI 10767 [1]; [11]) | MIC Aztreonam + inhibitor (E. coli JMI 10768 [2]; [11]) | MIC Aztreonam + inhibitor (E. coli JMI 10770; [11]) | MIC Aztreonam + inhibitor (E. coli JMI 2665; E. coli JMI 2665 (CMY-2 (Plasmid Cpase)), Aztreonam + inhibitor at 4 µg/mL) | MIC Aztreonam + inhibitor (E. coli JMI 2671; E. coli JMI 2671 (VIM-19 (Cpase)), Aztreonam + inhibitor at 4 µg/mL) | MIC Aztreonam + inhibitor (K. pneumo JMI 2673 [3]; [11]) | MIC Aztreonam + inhibitor (K.pneumo JMI 4109; [11])
>2 µg/mL: MIC Meropenem + inhibitor (P. aerug JMI 2686; [13]) | MIC Meropenem + inhibitor (K. pneumo JMI 2681; [13])
0.125 µg/mL: MIC Meropenem + inhibitor (E. coli JMI 2671; E. coli JMI 2671 (VIM-19 (Cpase)), Meropenem + inhibitor at 4 µg/mL) | MIC Aztreonam + inhibitor (K. pneumo JMI 2674 [4]; [11])
>16 µg/mL: MIC Ceftazidime + inhibitor (P. aerug JMI 2686; [12])
≤0.03 µg/mL: MIC Meropenem + inhibitor (E. coli ATCC 25922; [13]) | MIC Meropenem + inhibitor (E. coli JMI 4080; E. coli JMI 4080 (Tem-10), Meropenem + inhibitor at 4 µg/mL) | MIC Meropenem + inhibitor (E. coli JMI 10770; [13]) | MIC Meropenem + inhibitor (E. coli JMI 2665; E. coli JMI 2665 (CMY-2 (Plasmid Cpase)), Meropenem + inhibitor at 4 µg/mL) | MIC Meropenem + inhibitor (K. pneumo JMI 2673 [3]; [13]) | MIC Meropenem + inhibitor (K.pneumo JMI 4109; [13]) | MIC Meropenem + inhibitor (E. coli JMI 10767 [9]; [13]) | MIC Meropenem + inhibitor (E. coli JMI 10768 [10])
2 µg/mL: MIC Meropenem + inhibitor (A. baumanii JMI 2659; [13])
≤0.25 µg/mL: MIC Ceftazidime + inhibitor (E. coli ATCC 25922; [12]) | MIC Ceftazidime + inhibitor (E. coli JMI 10767 [1]; [12]) | MIC Ceftazidime + inhibitor (E. coli JMI 10768 [2]; [12]) | MIC Ceftazidime + inhibitor (E. coli JMI 10770; [12]) | MIC Ceftazidime + inhibitor (E. coli JMI 2665; E. coli JMI 2665 (CMY-2 (Plasmid Cpase)), Ceftazidime + inhibitor at 4 µg/mL) | MIC Ceftazidime + inhibitor (K. pneumo JMI 2673 [3]; [12]) | MIC Ceftazidime + inhibitor (K. pneumo JMI 2674 [4]; [12]) | MIC Ceftazidime + inhibitor (K. pneumo JMI 2699; [12]) | MIC Ceftazidime + inhibitor (K. pneumo JMI 4088 [5]; [12]) | MIC Ceftazidime + inhibitor (K.pneumo JMI 4109; [12]) | MIC Ceftazidime + inhibitor (K. pneumo JMI 2681; [12]) | MIC Ceftazidime + inhibitor (E. cloacae JMI 36; [12])
>4 µg/mL: MIC Aztreonam + inhibitor (A. baumanii JMI 2659; [11]) | MIC Aztreonam + inhibitor (P. aerug JMI 2686; [11]) | MIC Aztreonam + inhibitor (P. aerug JMI 149; [11])
1 µg/mL: MIC Ceftazidime + inhibitor (E. coli JMI 2671; E. coli JMI 2671 (VIM-19 (Cpase)), Ceftazidime + inhibitor at 4 µg/mL)
8 µg/mL: MIC (E. coli JMI 2665; Escherichia coli, JMI2665)
